Assay results: the supplement of paper PMC8633005

Columns and labels:
Experiment in all cases: drug sensitivity score (DSS) (DSS (unitless, 0-50 scale)); higher = more sensitive (stronger viability inhibition); extreme values may be limits of the assay
Settings in all cases: 72 h; culture: 2D
FM-MEL-6 = system: FM-MEL-6
Outline: (§1)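 Viability was measured by CellTiter-Glo luminescence after 72 h at 37 °C in 384-well plates holding a 527-compound oncology library, with patient-derived melanoma cultures (1000–1500 cells per well) and melanoma cell lines grown in 2D. Every compound was tested at five concentrations spanning a 10,000-fold range. The drug sensitivity score, a modified area under the curve, came from dose-response curves fitted with in-house Breeze software.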

Bowes = system: Bowes
Outline: as §1

SK-MEL-28 = system: SK-MEL-28
Outline: as §1

WM852 = system: WM852
Outline: as §1

FM-MEL-3 = system: FM-MEL-3
Outline: as §1

SK-MEL-2 = system: SK-MEL-2
Outline: as §1

WM165 = system: WM165
Outline: as §1

FM-MEL-2 = system: FM-MEL-2
Outline: as §1

| SMILES | drug sensitivity score (FM-MEL-6) | drug sensitivity score (Bowes) | drug sensitivity score (SK-MEL-28) | drug sensitivity score (WM852) | drug sensitivity score (FM-MEL-3) | drug sensitivity score (SK-MEL-2) | drug sensitivity score (WM165) | drug sensitivity score (FM-MEL-2) |
| --- | --- | --- | --- | --- | --- | --- | --- | --- |
| COc1cc(Nc2ncc3c(n2)-c2ccc(Cl)cc2C(c2c(F)cccc2OC)=NC3)ccc1C(=O)O [Alisertib] | 0.5 | 18.5 | 3.2 | 0 | 3.1 | 0 | 13.7 | 0.5 |
| COc1cc2c(Nc3ccc(Cl)c(Cl)c3F)ncnc2cc1OC[C@@H]1C[C@@H]2CN(C)C[C@@H]2C1 [Tesevatinib] | 0.3 | 1.8 | 0.1 | 0 | 0.8 | 0 | 0.1 | 0.1 |
| CCNC(=O)C[C@@H]1N=C(c2ccc(Cl)cc2)c2cc(OC)ccc2-n2c(C)nnc21 [Molibresib] | 5 | 3.8 | 1.8 | 0 | 4.8 | 0.5 | 6.5 | 3.8 |
| COc1cc2c(NC3CCN(C(C)C)CC3)nc(N3CCC(F)(F)CC3)nc2cc1OCCCN1CCCC1 [UNC0642] | 2.5 | 4 | 2 | 5.1 | 0.7 | 4.1 | 4.5 | 4.5 |
| CC(C)(O)CNc1nc(Nc2ccnc(C(F)(F)F)c2)nc(-c2cccc(C(F)(F)F)n2)n1 [Enasidenib] | 0 | 0 | 0 | 0 | 0 | 1.9 | 0 | 3.1 |
| Cc1cc(Nc2ncnc3ccc(NC4=NC(C)(C)CO4)cc23)ccc1Oc1ccn2ncnc2c1 [Tucatinib] | 0 | 0 | 0 | 0 | 0 | 0 | 0 | 0.4 |
| C=CC[C@@H]1/C=C(\C)C[C@H](C)C[C@H](OC)[C@H]2O[C@@](O)(C(=O)C(=O)N3CCCC[C@H]3C(=O)O[C@H](/C(C)=C/[C@@H]3CC[C@@H](O)[C@H](OC)C3)[C@H](C)[C@@H](O)CC1=O)[C@H](C)C[C@@H]2OC [Tacrolimus] | 0.1 | 0.6 | 0 | 0.1 | 1.3 | 0 | 0 | 1.9 |
| C[C@H]1Oc2cc(cnc2N)-c2c(nn(C)c2C#N)CN(C)C(=O)c2ccc(F)cc21 | 0.6 | 0.1 | 0 | 0 | 2.4 | 0 | 0.2 | 0.9 |
| COc1cc2nccc(Oc3ccc(NC(=O)C4(C(=O)Nc5ccc(F)cc5)CC4)cc3)c2cc1OC [Cabozantinib] | 0.2 | 2.1 | 0 | 0.8 | 2.5 | 0 | 0 | 2.2 |
| C[C@H]1C[C@@H]2[C@H]([C@@H](O)C[C@@]3(C)[C@H]2CC[C@]3(O)C(=O)CO)[C@@]2(C)C=CC(=O)C=C12 [Methylprednisolone] | 0 | 1 | 0.4 | 0 | 1.2 | 0 | 0 | 0 |
| Clc1ccc(Nc2nnc(Cc3ccncc3)c3ccccc23)cc1 [Vatalanib] | 0 | 0 | 0 | 0 | 0 | 0 | 0 | 0 |
| C[C@]1(c2nc3c(C(N)=O)cccc3[nH]2)CCCN1 [Veliparib] | 0 | 0 | 0.2 | 0 | 0.6 | 0 | 0.9 | 0.7 |
| CN1CCc2c(c3ccccc3n2Cc2ccc(C(=O)NO)cc2)C1 [Tubastatin A] | 0 | 2 | 1.3 | 0 | 0.6 | 1 | 2.2 | 0.6 |
| O[C@H](C[C@H]1c2c(F)cccc2-c2cncn21)[C@H]1CC[C@H](O)CC1 [GDC-0919] | 1.1 | 0.3 | 0.5 | 1.2 | 0.7 | 0 | 0 | 0.4 |
| COc1cc(C(=O)O)ccc1NC(=O)[C@@H]1N[C@@H](CC(C)(C)C)[C@](C#N)(c2ccc(Cl)cc2F)[C@H]1c1cccc(Cl)c1F [Idasanutlin] | 0.3 | 3.4 | 0 | 0 | 19.7 | 0 | 22.7 | 3.7 |
| COc1cc2nccc(Oc3ccc(NC(=O)Nc4cc(C)on4)c(Cl)c3)c2cc1OC [Tivozanib] | 0.5 | 2.8 | 3.1 | 1.1 | 4.8 | 0 | 3.1 | 3.4 |

| SMILES | drug sensitivity score (FM-MEL-6) | drug sensitivity score (Bowes) | drug sensitivity score (SK-MEL-28) | drug sensitivity score (WM852) | drug sensitivity score (FM-MEL-3) | drug sensitivity score (SK-MEL-2) | drug sensitivity score (WM165) | drug sensitivity score (FM-MEL-2) |
| --- | --- | --- | --- | --- | --- | --- | --- | --- |
| C=CC(=O)Nc1cccc(Nc2nc(Nc3ccc(OCCOC)cc3)ncc2F)c1 [Spebrutinib] | 1 | 2.1 | 0.7 | 0.9 | 1 | 0 | 1.1 | 0.9 |
| CC(=O)N(O)CCCCCNC(=O)CCC(=O)N(O)CCCCCNC(=O)CCC(=O)N(O)CCCCCN [Deferoxamine] | 1.8 | 2.9 | 0.9 | 4.9 | 0 | 0 | 3.8 | 0.6 |
| Cc1ccc(Nc2nccc(N(C)c3ccc4c(C)n(C)nc4c3)n2)cc1S(N)(=O)=O [Pazopanib] | 0.4 | 2.8 | 0 | 2.1 | 0 | 0 | 0 | 0 |
| CS(=O)(=O)c1ccc(C(=O)Nc2ccc(Cl)c(-c3ccccn3)c2)c(Cl)c1 [Vismodegib] | 0 | 0 | 0 | 0 | 0 | 0 | 0 | 0 |
| N#CC[C@H](C1CCCC1)n1cc(-c2ncnc3[nH]ccc23)cn1 [Ruxolitinib] | 0 | 0.1 | 0 | 0.1 | 1.4 | 0 | 0 | 0 |
| C=CC(=O)Nc1cccc(Nc2nc(Nc3ccc(N4CCN(C(C)=O)CC4)cc3OC)ncc2C(F)(F)F)c1 [Rociletinib] | 3.4 | 7.7 | 1.1 | 3 | 7.9 | 2.9 | 7.2 | 6.6 |
| COc1ccc(-c2ccc3ncc4c(c3c2)n(-c2ccc(N3CCNCC3)c(C(F)(F)F)c2)c(=O)n4C)cn1 [NVP-BGT226] | 12 | 19 | 11.5 | 11.9 | 13.1 | 13.6 | 18.3 | 11.7 |
| Cc1c2oc3c(C)ccc(C(=O)N[C@@H]4C(=O)N[C@H](C(C)C)C(=O)N5CCC[C@H]5C(=O)N(C)CC(=O)N(C)[C@@H](C(C)C)C(=O)O[C@@H]4C)c3nc-2c(C(=O)N[C@@H]2C(=O)N[C@H](C(C)C)C(=O)N3CCC[C@H]3C(=O)N(C)CC(=O)N(C)[C@@H](C(C)C)C(=O)O[C@@H]2C)c(N)c1=O [Dactinomycin] | 25.9 | 24.4 | 22.2 | 24.2 | 23.5 | 30.1 | 37.9 | 16.9 |
| CC[C@]1(O)C[C@@H]2CN(CCc3c([nH]c4ccccc34)[C@@](C(=O)OC)(c3cc4c(cc3OC)N(C)[C@H]3[C@@](O)(C(=O)OC)[C@H](OC(C)=O)[C@]5(CC)C=CCN6CC[C@]43[C@@H]65)C2)C1 [Vinblastine] | 3.9 | 21.8 | 8.9 | 13.8 | 11.9 | 19.3 | 19.9 | 4.5 |
| C=C1C[C@@H]2CC[C@@]34C[C@H]5O[C@H]6[C@@H](O3)[C@H]3O[C@H](CC[C@@H]3O[C@H]6[C@H]5O4)CC(=O)C[C@@H]3[C@@H](OC)[C@@H](C[C@H](O)CN)O[C@H]3C[C@H]3O[C@@H](CC[C@@H]1O2)C[C@@H](C)C3=C [Eribulin] | 18.5 | 23.6 | 11.2 | 22.8 | 9.4 | 20.4 | 22.5 | 4.8 |
| Nc1nc(Cl)nc2c1ncn2[C@H]1C[C@H](O)[C@@H](CO)O1 [Cladribine] | 4.6 | 1.4 | 0.8 | 0.1 | 2.5 | 0 | 4.3 | 0 |
| CN1CC[C@H](c2c(O)cc(O)c3c(=O)cc(-c4ccccc4Cl)oc23)[C@H](O)C1 [Alvocidib] | 17.7 | 19.9 | 18.1 | 16.4 | 18.6 | 16.9 | 20.4 | 12.6 |
| C#Cc1cccc(Nc2ncnc3cc(OCCOC)c(OCCOC)cc23)c1 [Erlotinib] | 1.9 | 1.8 | 1.1 | 2.5 | 3.5 | 0 | 3.9 | 4.4 |
| CN(C)c1cc2c(cc1Sc1nc3c(N)nccc3n1CCNCC(C)(C)C)OCO2 [CUDC-305] | 5.3 | 13.8 | 8.6 | 7.2 | 13 | 10.7 | 16.1 | 9.7 |
| CN(C)Cc1c(C(=O)NCCOc2ccc(C(=O)NO)cc2)oc2ccccc12 [Abexinostat] | 14.7 | 10 | 13 | 9.1 | 14.6 | 15.9 | 17 | 15.9 |
| CCc1c2c(nc3ccc(O)cc13)-c1cc3c(c(=O)n1C2)COC(=O)[C@]3(O)CC [SN-38] | 19.7 | 19.7 | 17 | 8 | 24.6 | 17.3 | 42.7 | 11.8 |
